Here are results for 8 compounds from paper PMC4166935, “Toward Biophysical Probes for the 5-HT3 Receptor: Structure−Activity Relationship Study of Granisetron Derivatives” (Journal of Medicinal Chemistry, 2010).

Like-named read-outs stand apart in the source and are kept apart here.

One assay addresses T1, human 5-HT3A receptor (Homo sapiens, UniProt P46098).
T1 construct: expressed in transfected cells; cell membranes
T1 sequence (P46098 24-478): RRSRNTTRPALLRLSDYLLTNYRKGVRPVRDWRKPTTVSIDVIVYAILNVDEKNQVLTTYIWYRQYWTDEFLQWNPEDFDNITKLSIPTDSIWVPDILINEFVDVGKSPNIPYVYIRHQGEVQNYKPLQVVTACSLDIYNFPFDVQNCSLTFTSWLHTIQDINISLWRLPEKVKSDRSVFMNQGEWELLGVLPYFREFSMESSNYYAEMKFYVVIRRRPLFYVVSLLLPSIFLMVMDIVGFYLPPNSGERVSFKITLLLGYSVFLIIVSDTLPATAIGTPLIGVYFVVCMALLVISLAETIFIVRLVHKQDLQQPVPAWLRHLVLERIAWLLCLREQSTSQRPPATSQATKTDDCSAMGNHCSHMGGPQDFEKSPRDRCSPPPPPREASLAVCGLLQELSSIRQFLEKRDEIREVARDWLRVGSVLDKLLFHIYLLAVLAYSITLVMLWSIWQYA
Briefly: [3H]granisetron competition binding, HEK293 cell membranes stably expressing h5-HT3AR. How it is done: Materials and cell culture maintenance
All cell culture reagents were obtained from Gibco BRL (Paisley, UK), except foetal calf serum which was from Labtech International (Ringmer, UK). [3H]granisetron (63.5 Ci/mmol) was from PerkinElmer (Boston, Massachusetts, USA).
Human embryonic kidney (HEK)-293 cells were maintained on 90 mm tissue culture plates at 37°C and 7% CO2 in a humidified atmosphere. Cells were cultured in DMEM:F12 (Dulbecco’s modified Eagle medium/nutrient mix F12 (1:1)) with GlutaMAX™ I containing 10% foetal calf serum and passaged when 90% confluent.
Receptor expression and radioligand binding
HEK-293 cells stably expressing the human 5-HT3A subunit (accession number: P46098) were scraped into 1 mL of ice-cold HEPES buffer (10 mM, pH 7.4) and frozen at –20°C.
After thawing, they were spun at 13,000 rpm for 1 min, resuspended and 50 μg of cell […]
Competition binding (12 points) was performed on at least three separate plates of cells.
Nonspecific binding was determined using 10 μM quipazine or other competitive antagonist.
Reactions were incubated for at least 1 h at 4°C and terminated by vacuum filtration, using a Brandel cell harvester, onto GF/B filters presoaked in 0.3% polyethyleneimine. Radioactivity was determined by scintillation counting using a Beckman LS6000SC (Fullerton, CA, USA).
Competition binding data were analyzed by iterative curve fitting (GraphPad Prism v3.02, GraphPad Software, San Diego, CA, USA), according to the equation: […]
where [L] is the concentration of ligand present, BL is the binding in the presence of ligand […]
the concentration of L which gives a binding equal to (Bmax + Bmin)/2, and nH is the Hill coefficient. Ki values were calculated from IC50 values using the Cheng–Prusoff equation: […]
where Ki is the equilibrium dissociation constant for binding of the unlabelled antagonist, [L] is the concentration of radioligand and Kd is the equilibrium dissociation constant of the radioligand. Values are presented as mean ± SEM.

For another assay, the system named is 5-HT3 receptor. More on the design: method as in earlier work. The following applies: cited from earlier work.
The next assay has as its target T2, h5-HT3AR in HEK293 cells (Homo sapiens, UniProt P46098).
T2 sequence (P46098 24-478): T1 sequence (P46098 24-478)
Briefly: Confocal labeling of HEK293 cells stably transfected with h5-HT3AR with fluorescent probe 16. The settings on record: 10 μM quipazine with 10 nM 16 for 10 min. The assay is classed as cell-based. How it is done: To confirm the validity of this hypothesis, we attached a BODIPY FL fluorophore at this position (Scheme 3) to create fluorescent analogue 16 (BFL-GR). […] Similar images have previously been obtained using fluorescein, rhodamine 6G, and cyanine Cy5 dyes attached via a linker at a similar position of ondansetron, another high-affinity 5-HT3AR antagonist.[30]
Figure 3 Labeling of HEK293 cells stably transfected with h5-HT3AR with 16. Cells were incubated in 10 nM 16 for 10 min with (B) or without (A) 10 μM quipazine, washed, mounted, and then observed in a confocal microscope.[31] […] Unlabeled areas are nuclei. […] Scale bar represents 20 μm.

Setting [1] is: Ki (nM) mean ± SEM, competition with 1 nM [3H]granisetron, HEK293 cell membranes stably expressing h5-HT3AR.
The mark [2] stands for this setting: competition with 1 nM [3H]granisetron, HEK293 cell membranes stably expressing h5-HT3AR, read-out: Ki (nM) mean ± SEM.

For `COc1cccc2c1c(C(=O)NC1CC3CCCC(C1)N3C)nn2C` (stereo not drawn) [2b], affinity on human 5-HT3A receptor was put at a Ki of 26.3 ± 7.4 nM.

Regarding `CN1C2CCCC1CC(NC(=O)c1nn(C)c3cccc(OCc4ccccc4)c13)C2` (stereo not drawn) [2c], the affinity on human 5-HT3A receptor (setting [1]), expressed as Ki, was 375 ± 61 nM.

Take `CN1C2CCCC1CC(NC(=O)c1nn(C)c3ccc(OCc4ccccc4)cc13)C2` (stereo not drawn) [3c]: on human 5-HT3A receptor (setting [2]), the Ki was 3030 ± 956 nM.

As for `CN1C2CCCC1CC(NC(=O)c1nn(C)c3cc(OCc4ccccc4)ccc13)C2` (stereo not drawn) [4c], on human 5-HT3A receptor (setting [2]), the inhibition constant (Ki) came out at 749 ± 183 nM.

As to `CN1C2CCCC1CC(NC(=O)c1nn(C)c3c(O)cccc13)C2` (stereo not drawn) [5a], the “potency compared to granisetron” value in the assay with 5-HT3 receptor is on record as “as potent as granisetron”.

Consider `COc1cccc2c(C(=O)NC3CC4CCCC(C3)N4C)nn(C)c12` (stereo not drawn) [5b], for which the Ki at human 5-HT3A receptor worked out at 71.1 ± 8 nM.

In the case of `CN1C2CCCC1CC(NC(=O)c1nn(C)c3c(OCc4ccccc4)cccc13)C2` (stereo not drawn) [5c], affinity on human 5-HT3A receptor (setting [1]) was put at a Ki of 0.23 ± 0.03 nM. In addition, the “affinity for 5-HT3AR compared to 1” value at human 5-HT3A receptor (comparison with granisetron (1)) is recorded as “equal or exceed the affinity measured for 1”.

As for `c1ccc2nc(N3CCNCC3)ccc2c1` [Quipazine, quipazine], the “displacement of 16 from its binding sites” value on h5-HT3AR in HEK293 cells is given as “has displaced 16 from its binding sites”.

As usually defined, the Ki is a measure of affinity in units of concentration, obtained from inhibition or displacement.
